System: myotubes differentiated from C2C12 cells
Test: Mitochondrial calcium rise in C2C12 myotubes (mitochondrial aequorin luminescence)
Type: cell-based
Details: C2C12-derived myotubes, taurine alone at the indicated concentrations (μM) vs. control, compounds added 2 hours before measurement, 28 experiments, P<0.05 one-way ANOVA
Experimental: To test the effect of oleuropein (or oleuropein aglycone), taurine and their combination in living cells, the inventors measured mitochondrial calcium rise in myotubes differentiated from C2C12 cells. C2C12 cells were purchased from ATCC. C2C12 cells were seeded in 96-well plates at a density of 8000 cells per well in DMEM high glucose (Gibco)+10% fetal calf serum. Myotubes were differentiated by growing the C2C12 cells in DMEM containing 2% horse serum, for 4 days. Mitochondrial calcium measurements were carried out using myotubes infected with the adenovirus (from Sirion biotech) expressing the mitochondrially targeted calcium sensor mitochondrial mutated aequorin (Montero et al., 2002 Biochem J. 2002 Jul. 15; 365(Pt 2): 451-9). For aequorin reconstitution, 24 hours after infection, myotubes were incubated for 2 h at room temperature (22±°C.) in standard medium (145 mM NaCl, 5 mM KCl, 1 mM MgCl2, 1 mM CaCl2, 10 mM glucose and 10 mM Hepes, pH 7.4) with 1 μM wild-type coelenterazine. […] Luminescence was measured at the FLIPR Tetra Aequorin (Molecular Devices). Calibration of the luminescence data into calcium concentration was carried out using an algorithm as described previously (Montero et al, 2002, Biochem J. 2002 Jul. 15; 365(Pt 2): 451-9)). Custom module analysis based on Excel (Microsoft) and GhaphPad Prism 7.02 (GraphPad) software was used for quantification.

SMILES: NCCS(=O)(=O)O [Taurine, 2-aminoethanesulfonic acid]
- integrated mitochondrial calcium rise, evoked by 5 mM caffeine: enhances mitochondrial Ca2+ elevation
- integrated mitochondrial calcium rise, evoked by 5 mM caffeine (listed as taurine): enhances mitochondrial function

— patent publication US20260174673A1, “COMPOSITIONS AND METHODS USING A COMBINATION OF OLEUROPEIN AND TAURINE” (SOCIÉTÉ DES PRODUITS NESTLÉ S.A., priority 2022, published 2026)
